From ChEMBL document CHEMBL4804284
Calls of active or inactive are those of the source. No cut-off for these calls is given here.

Legend:
[1] = target: Serine/threonine-protein kinase MAK (Homo sapiens) (UniProt P20794); assay: Inhibition of DNA-tagged human MAK assessed as percent of control at 50000 nM by qPCR analysis relative to control; parameters: scale not given: the % may be the effect or the level left
[2] = target: Ribosomal protein S6 kinase alpha-4 (Homo sapiens) (UniProt O75676); assay: Inhibition of DNA-tagged human N-terminal RPS6KA4 kinase domain assessed as percent of control at 50000 nM by qPCR analysis relative to control; parameters: scale not given: the % may be the effect or the level left
[3] = target: Serine/threonine-protein kinase N1 (Homo sapiens) (UniProt Q16512); assay: Inhibition of DNA-tagged human PKN1 assessed as percent of control at 50000 nM by qPCR analysis relative to control; parameters: scale not given: the % may be the effect or the level left
[4] = target: Serine/threonine-protein kinase 3 (Homo sapiens) (UniProt Q13188); assay: Inhibition of DNA-tagged human MST2 assessed as percent of control at 50000 nM by qPCR analysis relative to control; parameters: scale not given: the % may be the effect or the level left
[5] = target: Mitogen-activated protein kinase kinase kinase 20 (Homo sapiens) (UniProt Q9NYL2); assay: Inhibition of DNA-tagged human ZAK assessed as percent of control at 50000 nM by qPCR analysis relative to control; parameters: scale not given: the % may be the effect or the level left
[6] = target: Tyrosine-protein kinase Tec (Homo sapiens) (UniProt P42680); assay: Inhibition of DNA-tagged human TEC assessed as percent of control at 50000 nM by qPCR analysis relative to control; parameters: scale not given: the % may be the effect or the level left
U-266 = assay: Cytotoxicity against human U-266 cells at 0.1-100 uM assessed as decrease in cell viability relative to control; assay type: functional, cell-based
[7] = test system: Tyrosine-protein kinase ABL1 (Homo sapiens), P00519 [F317L]; assay: Inhibition of DNA-tagged non-phosphorylated human ABL1 F317L mutant assessed as percent of control at 50000 nM by qPCR analysis relative to control; parameters: scale not given: the % may be the effect or the level left
[8] = target: Ephrin type-A receptor 5 (Homo sapiens) (UniProt P54756); assay: Inhibition of DNA-tagged human EPHA5 assessed as percent of control at 50000 nM by qPCR analysis relative to control; parameters: scale not given: the % may be the effect or the level left
[9] = test system: Tyrosine-protein kinase ABL1 (Homo sapiens), P00519 [UNDEFINED MUTATION]; assay: Inhibition of DNA-tagged phosphorylated human ABL1 […] mutant assessed as percent of control at 50000 nM by qPCR analysis relative to control; parameters: scale not given: the % may be the effect or the level left
[10] = target: Casein kinase I isoform epsilon (Homo sapiens) (UniProt P49674); assay: Inhibition of DNA-tagged human CSNK1E assessed as percent of control at 50000 nM by qPCR analysis relative to control; parameters: scale not given: the % may be the effect or the level left
[11] = target: Mast/stem cell growth factor receptor Kit (Homo sapiens) (UniProt P10721); assay: Inhibition of DNA-tagged human KIT assessed as percent of control at 50000 nM by qPCR analysis relative to control; parameters: scale not given: the % may be the effect or the level left
[12] = target: Cyclin-dependent kinase 5 (Homo sapiens) (UniProt Q00535); assay: Inhibition of DNA-tagged human CDK5 assessed as percent of control at 50000 nM by qPCR analysis relative to control; parameters: scale not given: the % may be the effect or the level left
[13] = target: cAMP-dependent protein kinase catalytic subunit beta (Homo sapiens) (UniProt P22694); assay: Inhibition of DNA-tagged human PKAC-beta assessed as percent of control at 50000 nM by qPCR analysis relative to control; parameters: scale not given: the % may be the effect or the level left
[14] = target: Tyrosine-protein kinase ITK/TSK (Homo sapiens) (UniProt Q08881); assay: Inhibition of DNA-tagged human ITK assessed as percent of control at 50000 nM by qPCR analysis relative to control; parameters: scale not given: the % may be the effect or the level left
[15] = target: Serine/threonine-protein kinase B-raf (Homo sapiens) (UniProt P15056); assay: Inhibition of DNA-tagged human BRAF assessed as percent of control at 50000 nM by qPCR analysis relative to control; parameters: scale not given: the % may be the effect or the level left
[16] = target: Homeodomain-interacting protein kinase 1 (Homo sapiens) (UniProt Q86Z02); assay: Inhibition of DNA-tagged human HIPK1 assessed as percent of control at 50000 nM by qPCR analysis relative to control; parameters: scale not given: the % may be the effect or the level left
[17] = target: LIM domain kinase 1 (Homo sapiens) (UniProt P53667); assay: Inhibition of DNA-tagged human LIMK1 assessed as percent of control at 50000 nM by qPCR analysis relative to control; parameters: scale not given: the % may be the effect or the level left
[18] = target: Serine/threonine-protein kinase 38-like (Homo sapiens) (UniProt Q9Y2H1); assay: Inhibition of DNA-tagged human NDR2 assessed as percent of control at 50000 nM by qPCR analysis relative to control; parameters: scale not given: the % may be the effect or the level left
[19] = target: Phosphatidylinositol 5-phosphate 4-kinase type-2 gamma (Homo sapiens) (UniProt Q8TBX8); assay: Inhibition of DNA-tagged human PIP5K2C assessed as percent of control at 50000 nM by qPCR analysis relative to control; parameters: scale not given: the % may be the effect or the level left
[20] = test system: Tyrosine-protein kinase ABL1 (Homo sapiens), P00519 [E255K]; assay: Inhibition of DNA-tagged phosphorylated human ABL1 E255K mutant assessed as percent of control at 50000 nM by qPCR analysis relative to control; parameters: scale not given: the % may be the effect or the level left
[21] = target: Mitogen-activated protein kinase kinase kinase 3 (Homo sapiens) (UniProt Q99759); assay: Inhibition of DNA-tagged human MAP3K3 assessed as percent of control at 50000 nM by qPCR analysis relative to control; parameters: scale not given: the % may be the effect or the level left
[22] = target: Serine/threonine-protein kinase D2 (Homo sapiens) (UniProt Q9BZL6); assay: Inhibition of DNA-tagged human PRKD2 assessed as percent of control at 50000 nM by qPCR analysis relative to control; parameters: scale not given: the % may be the effect or the level left
[23] = target: Glycogen synthase kinase-3 beta (Homo sapiens) (UniProt P49841); assay: Inhibition of DNA-tagged human GSK3B assessed as percent of control at 50000 nM by qPCR analysis relative to control; parameters: scale not given: the % may be the effect or the level left
[24] = target: Inhibitor of nuclear factor kappa-B kinase subunit epsilon (Homo sapiens) (UniProt Q14164); assay: Inhibition of DNA-tagged human IKK-epsilon assessed as percent of control at 50000 nM by qPCR analysis relative to control; parameters: scale not given: the % may be the effect or the level left
[25] = target: Macrophage colony-stimulating factor 1 receptor (Homo sapiens) (UniProt P07333); assay: Inhibition of DNA-tagged human CSF1R assessed as percent of control at 50000 nM by qPCR analysis relative to control; parameters: scale not given: the % may be the effect or the level left
[26] = test system: Receptor-type tyrosine-protein kinase FLT3 (Homo sapiens), P36888 [UNDEFINED MUTATION]; assay: Inhibition of DNA-tagged human FLT3 ITD mutant assessed as percent of control at 50000 nM by qPCR analysis relative to control; parameters: scale not given: the % may be the effect or the level left
[27] = target: cAMP-dependent protein kinase catalytic subunit alpha (Homo sapiens) (UniProt P17612); assay: Inhibition of DNA-tagged human PKAC-alpha assessed as percent of control at 50000 nM by qPCR analysis relative to control; parameters: scale not given: the % may be the effect or the level left
[28] = target: Phosphorylase b kinase gamma catalytic chain, liver/testis isoform (Homo sapiens) (UniProt P15735); assay: Inhibition of DNA-tagged human PHKG2 assessed as percent of control at 50000 nM by qPCR analysis relative to control; parameters: scale not given: the % may be the effect or the level left
[29] = target: Serine/threonine-protein kinase/endoribonuclease IRE1 (Homo sapiens) (UniProt O75460); assay: Inhibition of DNA-tagged human ERN1 assessed as percent of control at 50000 nM by qPCR analysis relative to control; parameters: scale not given: the % may be the effect or the level left

Chain of Tyrosine-protein kinase Tec (Homo sapiens) (P42680 whole entry): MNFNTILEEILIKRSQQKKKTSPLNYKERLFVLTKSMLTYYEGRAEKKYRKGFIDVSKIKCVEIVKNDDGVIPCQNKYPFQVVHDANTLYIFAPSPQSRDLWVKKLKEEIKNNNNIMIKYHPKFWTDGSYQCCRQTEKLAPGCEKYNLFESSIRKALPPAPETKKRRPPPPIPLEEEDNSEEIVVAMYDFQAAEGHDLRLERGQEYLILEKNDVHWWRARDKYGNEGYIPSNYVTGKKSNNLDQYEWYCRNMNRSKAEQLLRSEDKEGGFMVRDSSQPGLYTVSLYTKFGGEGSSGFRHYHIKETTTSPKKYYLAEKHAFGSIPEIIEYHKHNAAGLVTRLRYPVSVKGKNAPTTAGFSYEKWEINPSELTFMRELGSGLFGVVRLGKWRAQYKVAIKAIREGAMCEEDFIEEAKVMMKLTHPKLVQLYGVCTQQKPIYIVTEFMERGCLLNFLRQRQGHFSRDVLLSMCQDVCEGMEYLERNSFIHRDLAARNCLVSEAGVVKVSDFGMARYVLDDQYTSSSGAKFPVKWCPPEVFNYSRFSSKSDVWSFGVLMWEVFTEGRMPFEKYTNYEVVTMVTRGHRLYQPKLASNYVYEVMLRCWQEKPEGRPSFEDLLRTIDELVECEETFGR
Chain of Tyrosine-protein kinase ABL1 (Homo sapiens), P00519 [F317L] (P00519 whole entry F317L): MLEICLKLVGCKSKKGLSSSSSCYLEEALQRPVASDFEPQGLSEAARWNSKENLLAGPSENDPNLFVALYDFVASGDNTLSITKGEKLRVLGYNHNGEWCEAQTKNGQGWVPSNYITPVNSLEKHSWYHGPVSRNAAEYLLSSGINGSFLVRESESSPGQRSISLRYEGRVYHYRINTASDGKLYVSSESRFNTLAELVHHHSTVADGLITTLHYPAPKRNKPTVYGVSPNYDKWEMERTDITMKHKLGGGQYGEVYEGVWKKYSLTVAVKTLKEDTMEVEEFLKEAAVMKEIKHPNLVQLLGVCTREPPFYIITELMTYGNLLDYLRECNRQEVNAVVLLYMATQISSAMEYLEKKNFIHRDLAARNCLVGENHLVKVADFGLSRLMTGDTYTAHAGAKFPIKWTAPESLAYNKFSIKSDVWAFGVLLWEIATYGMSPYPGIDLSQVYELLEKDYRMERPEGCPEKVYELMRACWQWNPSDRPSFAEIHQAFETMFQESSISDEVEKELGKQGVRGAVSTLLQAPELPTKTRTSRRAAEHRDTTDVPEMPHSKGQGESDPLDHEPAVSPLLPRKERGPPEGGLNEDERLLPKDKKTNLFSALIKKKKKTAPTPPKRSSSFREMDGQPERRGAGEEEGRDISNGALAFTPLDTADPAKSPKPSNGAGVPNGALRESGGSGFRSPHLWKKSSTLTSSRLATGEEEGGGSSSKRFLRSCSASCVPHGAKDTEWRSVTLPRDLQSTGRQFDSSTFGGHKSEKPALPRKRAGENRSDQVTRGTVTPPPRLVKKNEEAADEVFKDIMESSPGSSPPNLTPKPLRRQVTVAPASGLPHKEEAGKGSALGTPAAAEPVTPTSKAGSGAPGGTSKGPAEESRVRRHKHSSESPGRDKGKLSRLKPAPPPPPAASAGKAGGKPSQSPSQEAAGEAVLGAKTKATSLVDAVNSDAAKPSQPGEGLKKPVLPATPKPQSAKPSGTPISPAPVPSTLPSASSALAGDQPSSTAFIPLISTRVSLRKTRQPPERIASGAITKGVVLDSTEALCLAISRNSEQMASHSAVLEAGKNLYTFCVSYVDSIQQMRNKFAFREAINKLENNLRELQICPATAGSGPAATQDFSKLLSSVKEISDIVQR
Chain of Serine/threonine-protein kinase D2 (Homo sapiens) (Q9BZL6 whole entry): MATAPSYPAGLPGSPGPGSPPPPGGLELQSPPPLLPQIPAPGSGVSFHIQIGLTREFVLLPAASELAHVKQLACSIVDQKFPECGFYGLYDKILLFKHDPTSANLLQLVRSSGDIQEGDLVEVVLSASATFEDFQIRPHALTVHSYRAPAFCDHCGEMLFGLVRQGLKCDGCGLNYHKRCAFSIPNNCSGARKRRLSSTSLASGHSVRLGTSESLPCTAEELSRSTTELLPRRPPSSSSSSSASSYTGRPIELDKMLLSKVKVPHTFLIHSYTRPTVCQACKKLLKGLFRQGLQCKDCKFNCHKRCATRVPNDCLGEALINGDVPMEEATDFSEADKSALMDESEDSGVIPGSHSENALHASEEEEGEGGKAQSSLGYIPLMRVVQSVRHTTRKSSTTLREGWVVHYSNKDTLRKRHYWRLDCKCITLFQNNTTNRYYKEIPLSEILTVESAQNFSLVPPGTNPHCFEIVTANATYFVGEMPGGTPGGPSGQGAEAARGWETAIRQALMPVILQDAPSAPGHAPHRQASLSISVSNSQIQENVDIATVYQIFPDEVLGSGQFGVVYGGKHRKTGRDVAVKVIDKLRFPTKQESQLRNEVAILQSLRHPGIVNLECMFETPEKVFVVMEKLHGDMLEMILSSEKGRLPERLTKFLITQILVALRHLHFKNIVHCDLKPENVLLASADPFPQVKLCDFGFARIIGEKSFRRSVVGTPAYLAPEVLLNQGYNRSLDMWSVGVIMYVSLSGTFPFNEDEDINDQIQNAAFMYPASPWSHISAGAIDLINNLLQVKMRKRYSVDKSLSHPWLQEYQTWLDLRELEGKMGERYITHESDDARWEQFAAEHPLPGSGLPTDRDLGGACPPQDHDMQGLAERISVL
Chain of Tyrosine-protein kinase ABL1 (Homo sapiens), P00519 [E255K] (P00519 whole entry E255K): as the sequence (P00519 whole entry F317L) above, with E255K, L317F counted along it
Chain of Inhibitor of nuclear factor kappa-B kinase subunit epsilon (Homo sapiens) (Q14164 whole entry): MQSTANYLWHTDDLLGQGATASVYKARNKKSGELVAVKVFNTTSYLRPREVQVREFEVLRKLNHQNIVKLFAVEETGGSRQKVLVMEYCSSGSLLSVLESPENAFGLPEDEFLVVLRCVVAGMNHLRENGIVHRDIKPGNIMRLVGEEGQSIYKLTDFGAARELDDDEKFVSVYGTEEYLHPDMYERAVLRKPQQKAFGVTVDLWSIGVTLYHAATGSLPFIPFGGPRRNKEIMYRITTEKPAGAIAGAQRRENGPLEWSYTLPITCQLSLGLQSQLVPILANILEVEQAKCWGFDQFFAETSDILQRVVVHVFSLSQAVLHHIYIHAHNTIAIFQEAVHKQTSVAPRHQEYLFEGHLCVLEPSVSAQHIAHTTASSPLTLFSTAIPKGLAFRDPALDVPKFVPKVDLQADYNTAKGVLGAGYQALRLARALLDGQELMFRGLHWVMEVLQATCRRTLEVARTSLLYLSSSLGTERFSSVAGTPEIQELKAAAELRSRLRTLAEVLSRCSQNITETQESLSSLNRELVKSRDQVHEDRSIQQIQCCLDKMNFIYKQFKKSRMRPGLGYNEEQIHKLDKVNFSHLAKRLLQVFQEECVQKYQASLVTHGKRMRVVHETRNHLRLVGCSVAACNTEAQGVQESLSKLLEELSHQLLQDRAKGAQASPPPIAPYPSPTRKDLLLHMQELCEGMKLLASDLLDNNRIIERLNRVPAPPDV
Chain of Tyrosine-protein kinase ABL1 (Homo sapiens), P00519 [UNDEFINED MUTATION] (P00519 whole entry, looked up, change not shown, canonical isoform): as the sequence (P00519 whole entry F317L) above, with L317F counted along it
Chain of Mitogen-activated protein kinase kinase kinase 20 (Homo sapiens) (Q9NYL2 2-800 limits assumed): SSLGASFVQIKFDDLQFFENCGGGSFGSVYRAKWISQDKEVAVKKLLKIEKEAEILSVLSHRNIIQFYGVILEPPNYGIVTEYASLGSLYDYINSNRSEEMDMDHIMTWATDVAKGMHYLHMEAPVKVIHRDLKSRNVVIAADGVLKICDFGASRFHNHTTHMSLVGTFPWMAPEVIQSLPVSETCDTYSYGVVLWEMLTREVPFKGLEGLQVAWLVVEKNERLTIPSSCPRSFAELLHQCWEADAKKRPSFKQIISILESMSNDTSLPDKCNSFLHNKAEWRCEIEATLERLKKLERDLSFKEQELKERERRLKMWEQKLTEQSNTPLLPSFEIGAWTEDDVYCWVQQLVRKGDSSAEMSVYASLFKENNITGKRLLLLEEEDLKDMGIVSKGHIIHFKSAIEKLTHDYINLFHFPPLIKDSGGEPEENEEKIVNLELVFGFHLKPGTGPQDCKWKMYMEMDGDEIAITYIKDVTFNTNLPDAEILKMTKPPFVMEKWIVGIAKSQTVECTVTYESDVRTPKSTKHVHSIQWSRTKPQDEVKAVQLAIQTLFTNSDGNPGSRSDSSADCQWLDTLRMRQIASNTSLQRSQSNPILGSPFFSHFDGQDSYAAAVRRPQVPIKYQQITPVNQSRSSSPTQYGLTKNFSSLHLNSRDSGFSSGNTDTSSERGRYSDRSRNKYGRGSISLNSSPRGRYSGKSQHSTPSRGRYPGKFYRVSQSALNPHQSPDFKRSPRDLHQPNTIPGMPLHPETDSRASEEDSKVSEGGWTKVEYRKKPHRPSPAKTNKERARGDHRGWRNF
Chain of Mitogen-activated protein kinase kinase kinase 3 (Homo sapiens) (Q99759 whole entry): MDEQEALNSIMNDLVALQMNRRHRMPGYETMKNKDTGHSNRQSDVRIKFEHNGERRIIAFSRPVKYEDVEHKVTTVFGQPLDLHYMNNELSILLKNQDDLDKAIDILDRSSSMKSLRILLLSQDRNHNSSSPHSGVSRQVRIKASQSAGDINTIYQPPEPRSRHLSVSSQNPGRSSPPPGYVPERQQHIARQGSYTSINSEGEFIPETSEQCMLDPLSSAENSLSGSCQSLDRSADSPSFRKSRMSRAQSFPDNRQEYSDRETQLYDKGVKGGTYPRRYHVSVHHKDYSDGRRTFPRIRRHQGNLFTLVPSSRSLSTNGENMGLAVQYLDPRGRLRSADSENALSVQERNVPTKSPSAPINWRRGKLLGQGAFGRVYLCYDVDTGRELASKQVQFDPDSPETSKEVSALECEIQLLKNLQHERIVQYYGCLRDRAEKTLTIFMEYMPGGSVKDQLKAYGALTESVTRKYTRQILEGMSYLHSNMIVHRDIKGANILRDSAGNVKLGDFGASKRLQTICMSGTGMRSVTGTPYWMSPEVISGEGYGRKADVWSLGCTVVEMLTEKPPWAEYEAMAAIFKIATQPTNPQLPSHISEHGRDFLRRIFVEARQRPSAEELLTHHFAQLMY

`CN1C(=O)/C(=C2/C(=O)Nc3ccccc32)c2ccccc21` showed an Activity [1] of 71%, an Activity [2] of 82% and an Activity [3] of 100%. For the same compound, the Activity [4] was 99%, the Activity [5] was 80% and the Activity [6] was 100%. The Activity (U-266) was “Active”, the Activity [7] was 100% and the Activity [8] was 96%. It also gave an Activity [9] of 94%, an Activity [10] of 91% and an Activity [11] of 94%. It also gave an Activity [12] of 100%, an Activity [13] of 91% and an Activity [14] of 78%. For the same compound, the Activity [15] was 84%, the Activity [16] was 83% and the Activity [17] was 84%. It also gave an Activity [18] of 100%, an Activity [19] of 55% and an Activity [20] of 100%. The Activity [21] was 94%, the Activity [22] was 87% and the Activity [23] was 90%. For the same compound, the Activity [24] was 100%, the Activity [25] was 98% and the Activity [26] was 76%. The Activity [27] was 93%, the Activity [28] was 100% and the Activity [29] was 83%.
